For orientation: IC50 means the concentration needed to halve the response being measured. A high value points to weaker potency in that assay.

The target of the first experiment is skeletal myofibrils (myosin ATPase). As to the kind of experiment: Skeletal Myofibril ATPase Assay. Type of experiment: biochemical. To be noted: Table 4C. The procedure, abridged: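 IC50 came from four-parameter logistic fits, bottom constrained ≥0, of (Max−Min) A340 values normalised to 1% DMSO controls. Readings were taken kinetically over 45 min at 1.5-2 min intervals, with ADP from myofibril myosin ATPase coupled through PK-LDH to NADH oxidation. Buffer was pCa (PIPES/CaCl2/EGTA), pH 7.0.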
`O=C(Cn1nc(-c2ccccc2)ccc1=O)Nc1ccccc1C(F)(F)F` [IIIc-52, 2-(6-oxo-3-phenylpyridazin-1(6H)-yl)-N-(2-(trifluoromethyl)phenyl)acetamide] displayed an IC50 of 10 to 100 µM.
On to `CC(CCNC(=O)Cn1nc(-c2ccccc2)ccc1=O)c1ccccc1` (stereo not shown) [IIIc-53, 2-(6-oxo-3-phenylpyridazin-1(6H)-yl)-N-(3-phenylbutyl)acetamide], for which the IC50 fell in the range of 10 to 100 µM.
The same measure, in the same setting: as for `O=C(Cn1nc(-c2ccccc2)ccc1=O)Nc1ccc(Cl)cc1Cl` [IIIc-54, N-(2,4-dichlorophenyl)-2-(6-oxo-3-phenylpyridazin-1(6H)-yl)acetamide], the figure is 10 to 100 µM.
Compound `CCC1CCC(CNC(=O)Cn2nc(-c3ccccc3)ccc2=O)CC1` (stereo not shown) [IIIc-55, N-((4-ethylcyclohexyl)methyl)-2-(6-oxo-3-phenylpyridazin-1(6H)-yl)acetamide] showed an IC50 of 10 to 100 µM.
Regarding `O=C(Cn1nc(-c2ccccc2)ccc1=O)Nc1ccccc1Cl` [IIIc-56, N-(2-chlorophenyl)-2-(6-oxo-3-phenylpyridazin-1(6H)-yl)acetamide], the IC50 is 10 to 100 µM.
`CC[C@H](C)NC(=O)Cn1nc(-c2ccccc2)ccc1=O` [IIIc-57, (S)-N-(sec-butyl)-2-(6-oxo-3-phenylpyridazin-1(6H)-yl)acetamide] came in with an IC50 of 10 to 100 µM.
With `COc1ccccc1NC(=O)Cn1nc(-c2ccccc2)ccc1=O` [IIIc-58, N-(2-methoxyphenyl)-2-(6-oxo-3-phenylpyridazin-1(6H)-yl)acetamide], the IC50 lay within 10 to 100 µM.
Regarding `COc1ccc(Cl)cc1NC(=O)Cn1nc(-c2ccccc2)ccc1=O` [IIIc-62, N-(5-chloro-2-methoxyphenyl)-2-(6-oxo-3-phenylpyridazin-1(6H)-yl)acetamide], the IC50 was greater than 100 µM.
`CC(C)NC(=O)Cn1nc(-c2ccccc2)ccc1=O` [IIIc-63, N-isopropyl-2-(6-oxo-3-phenylpyridazin-1(6H)-yl)acetamide] yielded an IC50 greater than 100 µM.
With `O=C(Cn1nc(-c2ccccc2)ccc1=O)Nc1ccc2c(c1)OCCO2` [IIIc-64], the IC50 was greater than 100 µM.
On the same count and under the same terms, the same measure for `O=C(Cn1nc(-c2ccccc2)ccc1=O)NC1CC1` [IIIc-65, N-cyclopropyl-2-(6-oxo-3-phenylpyridazin-1(6H)-yl)acetamide]: greater than 100 µM; for `O=C(Cn1nc(-c2ccccc2)ccc1=O)Nc1ccccc1F` [IIIc-66, N-(2-fluorophenyl)-2-(6-oxo-3-phenylpyridazin-1(6H)-yl)acetamide]: greater than 100 µM.

In the next experiment the test system is embryos from zebrafish model of DMD.
Assay: not given
Particulars: Li and Arner, PLoSONE, 2015; cited from earlier work.
Turning to `Cc1ccc(S(=O)(=O)NCc2ccccc2)cc1` [BTS, N-benzyl-p-tolyl-sulfonamide], the “protection of muscles from pathological muscle derangement” value is “protect muscles from pathological muscle derangement”.

The values are drawn from US20230293518A1 (Edgewise Therapeutics, Inc., priority 2020, published 2023).
